Assay results published in patent US12239644B2, “Composition for prevention or treatment of macular degeneration” (KYUNGPOOK NATIONAL UNIVERSITY INDUSTRY-ACADEMIC COOPERATION …, priority 2018, dated 2025).
Like-named read-outs stand apart in the source and are kept apart here.

Columns and labels:
HIF-1α = settings: ARPE-19 cells, 1% oxygen 4-6 hours, fursultiamine-HCl 20, 50, 100 μM
Procedure: After hypoxic exposure for 4-6 hours, the cells were lysed with a protein lysis buffer and protein isolation from the lysate was conducted.

[1] = system: choroidal vascular endothelial cells; settings: C57BL/6J choroid/sclera in Matrigel, day 3 to 5
Procedure: Effects of fursultiamine on the growth of choroidal vascular endothelial cells were evaluated by the ex vivo mouse choroid sprouting assay for age-related macular degeneration.
The eyeball was resected from C57BL/6J mice (Jackson Laboratory) at 3 or 4 weeks of age and the choroid/sclera was separated therefrom and sectioned into a size of 1 mm×1 mm. After being thawed on ice, Matrigel (Becton Dickinson, BD matrigel) in a liquid state was added in an amount of 300 μl to each well of 24-well plates and one of the cut choroid/sclera segments was seeded in the Matrigel in each well. Then, Matrigel was solidified for 10 min in a 37° C. incubator before adding 500 μl of an EGM medium (Lonza, Endothelial Growth Medium) to each well.
Subsequently, the growth of vascular endothelial cells was induced in a 37° C. incubator. The medium was exchanged every two days with a fresh one containing 20 μM or 50 μM fursultiamine-HCl. The growth of vascular endothelial cells from the choroid was monitored from the day of seeding the choroid/sclera and observed on day 3 to 5. The sprouting distances were measured at a total of 4 sites using the ImageJ software and averaged. Statistical analyses were performed with the Prism program, with statistical significance defined as p<0.05.

VEGF = settings: ARPE-19 medium
Procedure: ARPE-19 cells were seeded into 60-mm dishes and incubated overnight to adhere to the dishes. On the next day, the medium was replaced with serum-free medium. The cells were treated with fursultiamine-HCl (Toronto research chemical, F865230) or a vehicle (DMSO, Sigma-Aldrich) at the specific concentrations of 0 μM, 50 μM, and 100 μM and then exposed to 1% oxygen condition in a hypoxic chamber (INVIVO2 400, Baker). After hypoxic exposure for 4-6 hours, the cells were lysed with a protein lysis buffer and protein isolation from the lysate was conducted.
After 12 hours later, the medium was recovered and secreted levels of VEGF in the medium were measured using human VEGF enzyme linked immunoassay (ELISA) (R&D systems). Quantitation methods and concentration calculations were conducted according to the manufacturer's manual. Statistical analyses were performed using the Prism program, with statistical significance defined as p<0.05.

laser-induced CNV models = settings: C57BL/6J mice, 50 mg/kg orally for 8 days, one week after laser
Procedure: (§1) Statistical analyses were performed using the Prism program, with statistical significance defined as p<0.05.

[2] = system: laser-induced choroid neovascularization (CNV) models; settings: C57BL/6J mice, 50 mg/kg orally for 8 days, one week after laser
Procedure: as §1

ARPE-19 cells = settings: ARPE-19, LPS 10 ug/ml + fursultiamine 50 uM (24 h)
Procedure: To be specific, ARPE-19 cells were seeded onto 96-well XF plates, with the exchange of a fresh medium every two days. On day 5 after cell seeding, the cells were treated with 10 μg/ml LPS (lipopolysaccharides, Sigma-Aldrich) and then with 50 μM fursultiamine on day 6. On day 7, the medium was exchanged with an XF medium (Seahorse XF DMEM medium, Agilent) and the plates were left for 30 min at 37° C. in a non-CO2 incubator.
In order to assess mitochondrial spare capacity, the following mitochondrial electron transport inhibitors and respiratory uncouplers were used in corresponding steps: oligomycin (2 μM), FCCP (0.5 μM), rotenone (2 μM), and antimycin A (2 μM).
The oxygen consumption rate (OCR) was measured using an XFe96 analyzer (Agilent) according to the manufacturer's manual.

SMILES: CC(=C(CCO)SSCC1CCCO1)N(C=O)Cc1cnc(C)nc1N (stereo in doubt) [Fursultiamine, thiamine tetrahydrofurfuryl disulfide]
- expression of HIF-1α upregulated in the hypoxic condition (HIF-1α): reduced
- Sprouting range (pixels) ([1]; Fursultiamine 20 uM): 229.926 ± 28.348 pixels
- Sprouting range (pixels) ([1]; Fursultiamine 50 uM): 126.713 ± 22.810 pixels
- VEGF (VEGF; 1% O2, Fursultiamine 50 μM): 163.4 ± 7.4 pg/mL
- VEGF (VEGF; 1% O2, Fursultiamine 100 μM): 47.4 ± 4.6 pg/mL
- Lesion size (10^−3mm^2) (laser-induced CNV models): 15.7 ± 1.0 10^−3mm^2
- vascular leakage for the late phase [2]: decreased
- OCR (%) (mitochondrial spare capacity) (ARPE-19 cells): 189.438 ± 21.392%
